Test results: patent US8466089B2, “Pyrazole compounds, process for their production and herbicides containing them” (Ishihara Sangyo Kaisha, Ltd., priority 2008, dated 2013)

Tests used:
Type in all cases: in vivo
[1] = test system: Japanese ribbon waparo (Sagittaria pygmaea); experiment: Test Example 3, paddy field pot, application to irrigated water; details: applied at primary leaf stage, 13th to 17th day after application, read-out: Growth inhibition rate (%) Japanese ribbon waparo
Text: (§1) Paddy field soil was put into a 1/1,000,000 hectare pot, and seeds of barnyardgrass (Echinochloa oryzicola vasing.) and Japanese bulrush (Scirpus juncoides) were sown and lightly covered with soil. Then, pot was left to stand in a greenhouse in a state irrigated to a water depth of from 0.5 to 1 cm, and next day or two days later, tubers of Japanese ribbon waparo (Sagittaria pygmaea) were planted. Then, the irrigated water depth was maintained to be from 3 to 4 cm, and when barnyardgrass and Japanese bulrush reached 0.5 leaf stage, and Japanese ribbon waparo reached primary leaf stage, a water diluted solution of a wettable powder or an emulsifiable concentrate of the compound of the present invention prepared in accordance with a conventional preparation method, was uniformly dropwise applied by a pipette so that the amount of active ingredients would be a prescribed amount. Further, paddy field soil was put into a 1/1,000,000 pot, followed by soil puddling to an irrigated water depth of from 3 to 4 cm. Next day, rice (Oryza sativa L.) (var.: Nihonbare) of two leaf stage was transplanted in a transplantation depth of 3 cm. On the 4th day after transplantation, the compound of the present invention was applied in the same manner as described above.
(§2) On the 13th to 17th day after application, the state of growth of barnyardgrass, Japanese bulrush and Japanese ribbon waparo was visually observed, and on the 20th to 23rd day after application, the state of growth of rice was visually observed, and the herbicidal effect was evaluated by a growth inhibition rate (%) of 0 (equivalent to the non-treated area) to 100% (complete kill).

[2] = test system: barnyardgrass (Echinochloa oryzicola vasing.); experiment: as above; details: applied at 0.5 leaf stage, 13th to 17th day after application, read-out: Growth inhibition rate (%) barnyard grass
Text: as §1, §2

[3] = test system: Japanese bulrush (Scirpus juncoides); experiment: as above; details: Schoenoplectiella juncoides, applied at 0.5 leaf stage, 13th to 17th day after application, read-out: Growth inhibition rate (%) Japanese bulrush
Text: as §1, §2

[4] = test system: velvetleaf (Abutilon theophrasti MEDIC.); experiment: Test Example 1, foliar treatment in upland pots; details: 20th to 22nd day after application, visual, read-out: Growth inhibition rate (%) Velvetleaf
[5] = test system: crabgrass (Digitaria sanguinalis L.); experiment: Test Example 1, foliar treatment in upland pots; details: 20th to 22nd day after application, visual, read-out: Growth inhibition rate (%) Crabgrass
wheat (Triticum spp.) = experiment: Test Example 1, foliar treatment in upland pots; details: 20th to 22nd day after application, visual, read-out: Growth inhibition rate (%) Wheat
[6] = test system: soybean (Glycine max Merr.); experiment: Test Example 1, foliar treatment in upland pots; details: 20th to 22nd day after application, visual, read-out: Growth inhibition rate (%) Soybean
Method in brief: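 Post-emergence foliar spray at defined leaf stages (corn 2.0 to 3.3, soybean primary leaf to 0.3, green foxtail 1.5 to 3.0, rice 1.2 to 2.5), in water at 500 liter per hectare with 0.1 vol % spreader. Visual growth inhibition 0–100% rated on day 20 to 22.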

[7] = test system: barnyardgrass (Echinochloa crus-galli L.); experiment: Test Example 1, foliar treatment in upland pots; details: 20th to 22nd day after application, visual, read-out: Growth inhibition rate (%) Barnyardgrass
[8] = test system: prickly sida (Sida spinosa L.); experiment: Test Example 1, foliar treatment in upland pots; details: 20th to 22nd day after application, visual, read-out: Growth inhibition rate (%) Prickly sida
[9] = test system: velvetleaf (Abutilon theophrasti MEDIC.), guineagrass (Panicum maximum Jacq.), green foxtail (Setaria viridis L.); experiment: Test Example 4, foliar treatment, herbicidal effect versus Reference Compounds; details: 3.5 to 15 g/ha, 14th to 28th day after application, test written in present tense
Text: (§3) Upland field soil is put into a 1/1,000,000 hectare pot, and seeds of various plants are sown. When the respective plants reach predetermined leaf stage ((1) velvetleaf (Abutilon theophrasti MEDIC.), (2) guineagrass (Panicum maximum Jacq.), (3) green foxtail (Setaria viridis L.), and (4) corn (Zea mays L.), a wettable powder of compound No. 2-1 of the above-mentioned present invention, an emulsifiable concentrate of the following Reference Compound 1 and a wettable powder of the following Reference Compound 2, prepared in accordance with a conventional preparation method, are weighed so that the active ingredients become the prescribed amounts 3.5 to 15 g/ha, and diluted with water in an amount corresponding to 300 liter per 1 hectare (containing 0.5 vol % of an agricultural spreader (MSO concentrate, manufactured by Cognis Corporation). The spray solutions thus prepared are applied for foliar treatment by a small sprayer.

corn (Zea mays L.) = experiment: Test Example 4, foliar treatment, safety to crop plants versus Reference Compounds; details: 3.5 to 15 g/ha, 14th to 28th day after application, test written in present tense
Text: as §3

SMILES | inhibition at 63 g/ha [1] [%] | inhibition at 63 g/ha [2] [%] | inhibition at 63 g/ha [3] [%] | inhibition at 7 g/ha [4] [%] | inhibition at 7 g/ha [5] [%] | inhibition at 7 g/ha (wheat (Triticum spp.)) [%] | inhibition at 7 g/ha [6] [%] | inhibition at 7 g/ha [7] [%] | inhibition at 7 g/ha [8] [%] | herbicidal effect as compared to Reference Compounds [9] | safety to crop plants as compared to Reference Compounds (corn (Zea mays L.))
COCCOc1c(S(C)(=O)=O)ccc(C(=O)c2cnn(C(C)C)c2OC(C)OC(=O)OC)c1C (stereo not shown) [Compound No. 4-1, 1-(1-Isopropyl-4-(3-(2-methoxyethoxy)-2-methyl-4-(methylsulfonyl)benzoyl)-1H-pyrazol-5-yloxy)ethyl methyl carbonate] | 70 | 100 | 98 | 100 | 90 | 0 | 95 | 90 | 60 |  | 
CCn1ncc(C(=O)c2ccc(S(C)(=O)=O)c(OCCOC)c2C)c1OC(C)OC(=O)OC (stereo not shown) [Compound No. 2-1, 1-(1-Ethyl-4-(3-(2-methoxyethoxy)-2-methyl-4-(methylsulfonyl)benzoyl)-1H-pyrazol-5-yloxy)ethyl methyl carbonate] | 80 | 100 | 80 | 100 | 100 | 0 | 95 | 95 | 60 | superior herbicidal effects | excellent safety to crop plants
COCCOc1c(S(C)(=O)=O)ccc(C(=O)c2cnn(C(C)C)c2O)c1C [Compound No. 8-1, (5-Hydroxy-1-isopropyl-1H-pyrazol-4-yl)(3-(2-methoxyethoxy)-2-methyl-4-(methylsulfonyl)phenyl)ketone] | 95 | 95 | 95 | 80 | 95 | 0 | 40 | 60 | 30 |  | 
CCn1nc(C)c(C(=O)c2ccc(S(C)(=O)=O)c(OCCOC)c2C)c1O [Compound No. 6-1, (1-Ethyl-5-hydroxy-3-methyl-1H-pyrazol-4-yl)(3-(2-methoxyethoxy)-2-methyl-4-(methylsulfonyl)phenyl)ketone] | 60 | 60 | 80 | 50 | 50 | 0 |  | 10 | 0 |  | 
CCOC(=O)OC(C)Oc1c(C(=O)c2ccc(S(C)(=O)=O)c(OCCOC(C)C)c2C)cnn1C (stereo not shown) [Compound No. 1-5, Ethyl 1-(4-(3-(2-isopropoxyethoxy)-2-methyl-4-(methylsulfonyl)benzoyl)-1-methyl-1H-pyrazol-5-yloxy)ethyl carbonate] | 90 | 100 | 20 | 80 | 90 | 0 |  | 95 | 0 |  | 
CCCn1ncc(C(=O)c2ccc(S(C)(=O)=O)c(OCCOC)c2C)c1OC(C)OC(=O)OCC (stereo not shown) [Compound No. 3-1, Ethyl 1-(1-n-propyl-4-(3-(2-methoxyethoxy)-2-methyl-4-(methylsulfonyl)benzoyl)-1H-pyrazol-5-yloxy)ethyl carbonate] | 95 | 100 | 90 | 60 | 70 | 0 |  | 70 | 0 |  | 
CCCn1ncc(C(=O)c2ccc(S(C)(=O)=O)c(OCCOC)c2C)c1O [Compound No. 7-1, (5-Hydroxy-1-n-propyl-1H-pyrazol-4-yl)(3-(2-methoxyethoxy)-2-methyl-4-(methylsulfonyl)phenyl)ketone] | 90 | 30 | 70 | 75 | 70 | 0 | 60 | 60 | 20 |  | 
COCCOc1c(S(C)(=O)=O)ccc(C(=O)c2c(C)nn(C)c2OC(C)OC(=O)OC)c1C (stereo not shown) [Compound No. 1-6, 1-(4-(3-(2-Methoxyethoxy)-2-methyl-4-(methylsulfonyl)benzoyl)-1,3-dimethyl-1H-pyrazol-5-yloxy)ethyl methyl carbonate] | 60 | 100 | 70 | 98 | 90 | 0 | 80 | 90 | 70 |  | 
COCCOc1c(S(C)(=O)=O)ccc(C(=O)c2c(C)nn(C)c2O)c1C [Compound No. 5-2, (5-Hydroxy-1,3-dimethyl-1H-pyrazol-4-yl)(3-(2-methoxyethoxy)-2-methyl-4-(methylsulfonyl)phenyl)ketone] | 80 | 80 | 70 | 70 | 90 |  | 70 | 90 | 40 |  | 
Cc1c(C(=O)c2cnn(C)c2O)ccc(S(C)(=O)=O)c1OCCC(C)C [Compound No. 5-1, (5-Hydroxy-1-methyl-1H-pyrazol-4-yl)(3-(2-isopropylethoxy)-2-methyl-4-(methylsulfonyl)phenyl)ketone] | 95 | 60 | 20 | 10 | 50 | 0 |  | 30 | 40 |  | 
COC(=O)OC(C)Oc1c(C(=O)c2ccc(S(C)(=O)=O)c(C(=O)OC)c2C)cnn1C (stereo not shown) [Compound No. 1-2, Methyl 3-(5-(1-(methoxycarbonyloxy)ethoxy)-1-methyl-1H-pyrazole-4-carbonyl)-2-methyl-6-(methylsulfonyl)benzoate] | 95 | 100 | 70 | 80 | 90 | 0 | 95 | 100 |  |  | 
CCc1nn(C)c(O)c1C(=O)c1ccc(S(C)(=O)=O)c(OCCOC)c1C [Compound No. 5-3, (5-Hydroxy-1-methyl-3-ethyl-1H-pyrazol-4-yl)(3-(2-methoxyethoxy)-2-methyl-4-(methylsulfonyl)phenyl)ketone] | 50 | 60 | 50 | 80 | 90 |  | 0 | 90 | 30 |  | 
